The source of these data is PMC10253498 (RSC Advances, 2023).

Assay [1] addresses T1, monoamine oxidase A (MAO-A, extracted) (Homo sapiens, UniProt P21397).
T1 sequence (P21397 1-527): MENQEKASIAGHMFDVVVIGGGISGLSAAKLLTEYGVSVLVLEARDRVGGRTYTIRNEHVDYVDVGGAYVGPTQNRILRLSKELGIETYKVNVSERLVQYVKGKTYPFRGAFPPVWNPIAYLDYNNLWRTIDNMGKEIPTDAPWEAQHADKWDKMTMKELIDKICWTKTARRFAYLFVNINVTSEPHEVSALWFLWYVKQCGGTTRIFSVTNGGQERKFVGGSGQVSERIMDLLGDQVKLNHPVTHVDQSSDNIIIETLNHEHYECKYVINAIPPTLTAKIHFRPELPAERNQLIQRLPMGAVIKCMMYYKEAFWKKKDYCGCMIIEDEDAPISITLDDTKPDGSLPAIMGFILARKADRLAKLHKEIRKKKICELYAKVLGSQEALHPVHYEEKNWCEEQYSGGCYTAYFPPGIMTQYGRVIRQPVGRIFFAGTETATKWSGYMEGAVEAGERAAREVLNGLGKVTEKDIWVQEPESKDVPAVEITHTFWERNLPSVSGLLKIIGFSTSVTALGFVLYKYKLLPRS
As to conditions: for MAO-A %age inhibition: compounds not above 50% inhibition, test concentration not given.

Assay [2] has as its target T2, acetyl cholinesterase (AChE) (Homo sapiens, UniProt P22303). As to conditions: for AChE %age inhibition: test concentration not given.
Assay [3] concerns the target butyryl cholinesterase (BChE) (Homo sapiens, UniProt P06276). Nature of the assay: Butyryl cholinesterase inhibition assay. The class given is biochemical. As to conditions: for BChE %age inhibition: test concentration not given.
The target of assay [4] is T3, monoamine oxidase B (MAO-B, extracted) (Homo sapiens, UniProt P27338).
T3 sequence (P27338 1-520): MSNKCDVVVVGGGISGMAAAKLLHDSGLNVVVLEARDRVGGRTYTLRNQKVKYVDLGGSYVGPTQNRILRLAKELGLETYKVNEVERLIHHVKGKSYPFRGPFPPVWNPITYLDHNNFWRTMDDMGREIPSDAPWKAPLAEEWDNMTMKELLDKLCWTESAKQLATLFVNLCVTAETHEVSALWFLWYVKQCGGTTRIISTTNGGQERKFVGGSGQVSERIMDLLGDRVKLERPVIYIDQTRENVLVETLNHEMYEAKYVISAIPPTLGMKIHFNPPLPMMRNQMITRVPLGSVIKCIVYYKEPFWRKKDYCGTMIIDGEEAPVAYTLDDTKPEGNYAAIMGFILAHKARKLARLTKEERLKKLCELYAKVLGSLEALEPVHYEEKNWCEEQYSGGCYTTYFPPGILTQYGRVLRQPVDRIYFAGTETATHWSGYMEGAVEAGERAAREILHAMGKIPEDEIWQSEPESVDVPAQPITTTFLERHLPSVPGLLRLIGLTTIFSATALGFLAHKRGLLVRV
As to conditions: for MAO-B %age inhibition: compounds not above 50% inhibition, test concentration not given.

Assay [5] has as its target T2, acetyl cholinesterase (AChE). The experiment in a line: biochemical.
In assay [6] the target is T1, monoamine oxidase A (MAO-A, extracted). Nature of the assay: biochemical.
Description: (§1) Newly synthesized compounds were tested on monoamine oxidase A and B (extracted). […] Reaction mixture was composed of 100 μL of total assay volume having 30 μL buffer (pH 7.4), 10 μL test compounds, 10 μL of extracted enzyme (MAO-A: 13 μg mL^−1, MAO-B: 15 μg mL^−1), 30 μL of amplex red and 20 μL of substrate (p-tyramine). Initially reaction mixture having buffer + test compound + enzyme was incubated for 15 minutes for MAO-A And MAO-B. After Incubation the amplex red reagent was added followed by addition of substrate p-tyramine. The change in the fluorescence was determined by using fluorescence plate reader: FLUOstar® Omega (BMG Labtech GmbH, orten berg Germany). […] All experiments were performed in triplicate. IC50 values were calculated by non-linear curve fitting program PRISM 5.0 (GraphPad, San Diego, California, USA) where log inhibitor vs. response curve was generated.
The target of assay [7] is T3, monoamine oxidase B (MAO-B, extracted). The experiment in a line: biochemical.
Description: as §1

Entries after “also recorded” stand apart in the source; their conditions may differ. Marks after values point to notes of the source that are not given here.

Sequence of butyryl cholinesterase (BChE) (P06276 29-602, species assumed): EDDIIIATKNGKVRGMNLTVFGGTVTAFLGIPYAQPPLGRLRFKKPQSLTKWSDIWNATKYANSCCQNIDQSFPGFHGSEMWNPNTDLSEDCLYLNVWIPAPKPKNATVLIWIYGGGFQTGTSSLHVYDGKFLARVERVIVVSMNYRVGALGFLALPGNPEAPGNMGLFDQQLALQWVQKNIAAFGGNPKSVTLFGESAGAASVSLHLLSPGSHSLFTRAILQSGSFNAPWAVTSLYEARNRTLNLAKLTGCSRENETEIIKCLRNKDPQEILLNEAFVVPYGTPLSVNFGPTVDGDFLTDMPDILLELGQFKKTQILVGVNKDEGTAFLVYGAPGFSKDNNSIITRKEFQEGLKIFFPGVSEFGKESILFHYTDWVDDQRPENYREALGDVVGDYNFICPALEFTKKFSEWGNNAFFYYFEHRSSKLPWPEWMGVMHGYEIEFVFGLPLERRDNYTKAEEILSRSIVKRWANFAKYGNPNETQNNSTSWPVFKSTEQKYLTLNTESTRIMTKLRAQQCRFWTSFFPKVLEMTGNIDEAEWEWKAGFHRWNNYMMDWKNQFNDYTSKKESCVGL
T2 sequence (P22303 32-614, species assumed): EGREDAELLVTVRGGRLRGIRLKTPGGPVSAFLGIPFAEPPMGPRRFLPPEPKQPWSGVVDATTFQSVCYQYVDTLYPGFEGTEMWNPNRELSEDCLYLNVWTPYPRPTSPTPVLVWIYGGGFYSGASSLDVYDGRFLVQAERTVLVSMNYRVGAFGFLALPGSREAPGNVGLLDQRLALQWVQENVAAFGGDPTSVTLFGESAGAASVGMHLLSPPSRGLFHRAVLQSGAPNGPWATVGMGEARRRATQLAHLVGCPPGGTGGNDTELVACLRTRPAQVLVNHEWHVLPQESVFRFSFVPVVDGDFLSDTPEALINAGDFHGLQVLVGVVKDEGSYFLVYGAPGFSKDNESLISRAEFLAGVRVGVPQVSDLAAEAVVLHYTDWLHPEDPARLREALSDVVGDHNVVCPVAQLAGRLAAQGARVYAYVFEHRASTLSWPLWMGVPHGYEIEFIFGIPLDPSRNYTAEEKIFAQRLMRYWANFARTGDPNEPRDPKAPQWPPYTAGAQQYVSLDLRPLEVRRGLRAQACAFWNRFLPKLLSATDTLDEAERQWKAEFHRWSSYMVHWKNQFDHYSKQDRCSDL

What is called IC50 is the point on the concentration scale where inhibition reaches its midpoint. A higher IC50 goes with weaker potency in that assay. Turning to `N#Cc1cccc(Nc2nnc(-c3ccncc3)o2)c1` [Compound 4j, 3-((5-(Pyridin-4-yl)-1,3,4-oxadiazol-2-yl)amino)benzonitrile], in assay [1], the “inhibition against MAO-A (in words)” value is “potent inhibition”. Besides, the “inhibition against AChE (in words)” value in assay [2] is on record as “potent inhibition”. In assay [3], this molecule gave a BChE %age inhibition of 20.55% ^c. Moreover, in assay [4], the “inhibition against MAO-B (in words)” value is “lost its inhibitory effects” and the MAO-B %age inhibition is 18.57 ^c %. The molecule also showed an IC50 in assay [5] of 1560 ± 309 nM. Moreover, the IC50 in assay [6] amounted to 1020 ± 90 nM.

Regarding `N#Cc1cccc(Nc2nnc(Cc3ccccc3C(F)(F)F)o2)c1` [Compound 4b, 3-((5-(2-(Trifluoromethyl)benzyl)-1,3,4-oxadiazol-2-yl)amino)benzonitrile], in assay [2], the “inhibition against AChE (in words)” value is recorded as “moderate to weak inhibition” and the AChE %age inhibition was determined as 31.34% ^c. For the same molecule, the BChE %age inhibition in assay [3] was 23.65% ^c. The MAO-B %age inhibition in assay [4] is 35.73 ^c %. Besides, inhibition in assay [6] was half-maximal at 2860 ± 1510 nM (IC50).

For the molecule `FC(F)(F)c1ccc(-c2nnc(Nc3ccc(Br)cc3)o2)cc1` [Compound 4l, N-(4-Bromophenyl)-5-(4-(trifluoromethyl)phenyl)-1,3,4-oxadiazol-2-amine], in assay [1], the “inhibition against MAO-A (in words)” value is “weak inhibition; also recorded: demolished the activity” and the MAO-A %age inhibition is on record as 36.81 ^c %. Also, in assay [2], the “inhibition against AChE (in words)” value is given as “moderate to weak inhibition; also recorded: demolished the activity” and the AChE %age inhibition is 44.56% ^c. In assay [3], the “inhibition against BChE (in words)” value is “demolished the activity” and the BChE %age inhibition is 26.91% ^c. Besides, in assay [4], the “inhibition against MAO-B (in words)” value was “demolished the activity” and the MAO-B %age inhibition is reported as 24.86 ^c %.

On to `Cc1c(F)cccc1-c1nnc(Nc2ccccc2)o1` [Compound 4o, 5-(3-Fluoro-2-methylphenyl)-N-phenyl-1,3,4-oxadiazol-2-amine], for which, in assay [1], the MAO-A %age inhibition is 29.98 ^c %. The same molecule registered a BChE %age inhibition in assay [3] of 32.98% ^c. For the same molecule, the MAO-B %age inhibition in assay [4] was 22.65 ^c %. In assay [5], the IC50 was determined as 2320 ± 80 nM.

For `Fc1cc(F)cc(Cc2nnc(Nc3ccccc3F)o2)c1` [Compound 4f, 5-(3,5-Difluorobenzyl)-N-(2-fluorophenyl)-1,3,4-oxadiazol-2-amine], in assay [1], the “inhibition against MAO-A (in words)” value is “weak inhibition” and the MAO-A %age inhibition was 34.82 ^c %. The “inhibition against AChE (in words)” value in assay [2] is listed as “potent inhibition”. In assay [3], this molecule had a BChE %age inhibition of 22.61% ^c. For the same molecule, the MAO-B %age inhibition in assay [4] is 39.46 ^c %. For the same molecule, the 50% inhibitory concentration (IC50) in assay [5] came out at 2030 ± 434 nM.

Regarding `Cc1ccc(Nc2nnc(-c3cccc(F)c3)o2)c(C)c1` [Compound 4e, N-(2,4-Dimethylphenyl)-5-(3-fluorophenyl)-1,3,4-oxadiazol-2-amine], the “inhibition against MAO-A (in words)” value in assay [1] is given as “potent inhibition”. For the same molecule, in assay [2], the “inhibition against AChE (in words)” value is “potent inhibition”. The BChE %age inhibition in assay [3] turned out to be 10.54% ^c. Besides, the “inhibition against MAO-B (in words)” value in assay [4] is “strong inhibition”. Moreover, the IC50 in assay [5] was found to be 1960 ± 176 nM; in assay [6] it was 1470 ± 450 nM; in assay [7] it was 1910 ± 890 nM.

`Fc1cc(F)cc(Cc2nnc(Nc3ccc(F)cc3F)o2)c1` [Compound 4g, N-(2,4-Difluorophenyl)-5-(3,5-difluorobenzyl)-1,3,4-oxadiazol-2-amine]: in assay [1], the “inhibition against MAO-A (in words)” value was “potent inhibition”. In assay [3], this molecule came in with a BChE %age inhibition of 15.23% ^c. Besides, the “inhibition against MAO-B (in words)” value in assay [4] is “strong inhibition”. For the same molecule, the IC50 in assay [5] was found to be 1110 ± 80 nM; in assay [6] it was 1210 ± 40 nM; in assay [7], 2020 ± 1260 nM.

Regarding `Cc1ccc(Nc2nnc(-c3ccncc3)o2)c(C)c1` [Compound 4k, N-(2,4-Dimethylphenyl)-5-(pyridin-4-yl)-1,3,4-oxadiazol-2-amine], the “inhibition against MAO-A (in words)” value in assay [1] is listed as “potent inhibition”. In assay [2], the “inhibition against AChE (in words)” value is recorded as “moderate to weak inhibition; also recorded: lost its inhibitory effects” and the AChE %age inhibition was found to be 39.65% ^c. Further, the BChE %age inhibition in assay [3] is given as 14.67% ^c. Also, the “inhibition against MAO-B (in words)” value in assay [4] is recorded as “strong inhibition; also recorded: restored its inhibitory effects”. In addition, in assay [6], the IC50 is 3460 ± 2580 nM. In addition, in assay [7], the IC50 is 1100 ± 1160 nM.

For `c1ccc(Nc2nnc(-c3ccncc3)o2)cc1` [Compound 4d, N-Phenyl-5-(pyridin-4-yl)-1,3,4-oxadiazol-2-amine], in assay [1], the “inhibition against MAO-A (in words)” value is recorded as “potent inhibition; also recorded: promising inhibitory effects”. The molecule further came in with a BChE %age inhibition in assay [3] of 23.67% ^c. In assay [4], the “inhibition against MAO-B (in words)” value was “strong inhibition; also recorded: promising inhibitory effects”. In assay [6], this molecule gave an IC50 of 1440 ± 220 nM.

Turning to `Cc1ccc(F)c(-c2nnc(Nc3ccccc3F)o2)c1` [Compound 4h, 5-(2-Fluoro-5-methylphenyl)-N-(2-fluorophenyl)-1,3,4-oxadiazol-2-amine], in assay [1], the “inhibition against MAO-A (in words)” value is on record as “weak inhibition” and the MAO-A %age inhibition is 21.87 ^c %. Besides, in assay [2], the “inhibition against AChE (in words)” value is given as “potent inhibition”. The molecule also displayed a BChE %age inhibition in assay [3] of 12.43% ^c. Moreover, the MAO-B %age inhibition in assay [4] is reported as 29.36 ^c %. Besides, it took 1510 ± 462 nM to reach half-maximal inhibition in assay [5] (IC50).

Consider `Fc1ccccc1Nc1nnc(-c2ccc(C(F)(F)F)cc2)o1` [Compound 4i, N-(2-Fluorophenyl)-5-(4-(trifluoromethyl)phenyl)-1,3,4-oxadiazol-2-amine], for which, in assay [1], the “inhibition against MAO-A (in words)” value is “weak inhibition” and the MAO-A %age inhibition is given as 38.11 ^c %. Besides, in assay [2], the “inhibition against AChE (in words)” value is “potent inhibition; also recorded: moderate to weak inhibition” and the AChE %age inhibition came to 37.12% ^c. The molecule also registered a BChE %age inhibition in assay [3] of 21.45% ^c. For the same molecule, the MAO-B %age inhibition in assay [4] is given as 32.53 ^c %.

As to `Cc1ccccc1Nc1nnc(-c2ccccc2)o1` [Compound 4n, 5-Phenyl-N-(o-tolyl)-1,3,4-oxadiazol-2-amine], in assay [1], the “inhibition against MAO-A (in words)” value is “weak inhibition” and the MAO-A %age inhibition is recorded as 21.07 ^c %. Moreover, the BChE %age inhibition in assay [3] amounted to 28.87% ^c. In addition, in assay [4], the MAO-B %age inhibition is on record as 18.47 ^c %.

As to `N#Cc1cccc(Nc2nnc(-c3ccc(C(F)(F)F)cc3)o2)c1` [Compound 4a, 3-((5-(4-(Trifluoromethyl)phenyl)-1,3,4-oxadiazol-2-yl)amino)benzonitrile], in assay [1], the “inhibition against MAO-A (in words)” value was “weak inhibition” and the MAO-A %age inhibition is given as 33.23 ^c %. In assay [2], the “inhibition against AChE (in words)” value is recorded as “moderate to weak inhibition” and the AChE %age inhibition is 42.32% ^c. Also, in assay [3], the BChE %age inhibition is recorded as 20.54% ^c. In assay [4], the MAO-B %age inhibition is given as 37.06 ^c %.

Take `Fc1ccccc1Nc1nnc(Cc2ccccc2C(F)(F)F)o1` [Compound 4c, N-(2-Fluorophenyl)-5-(2-(trifluoromethyl)benzyl)-1,3,4-oxadiazol-2-amine]: the “inhibition against MAO-A (in words)” value in assay [1] was “potent inhibition”. Moreover, in assay [3], the BChE %age inhibition was found to be 14.76% ^c. Further, the “inhibition against MAO-B (in words)” value in assay [4] is recorded as “strong inhibition”. In addition, the midpoint of inhibition in assay [6], the IC50, lay at 1900 ± 250 nM.

With `CC(C)c1ccc(Nc2nnc(-c3ccc(C(F)(F)F)cc3)o2)cc1` [Compound 4m, N-(4-Isopropylphenyl)-5-(4-(trifluoromethyl)phenyl)-1,3,4-oxadiazol-2-amine], in assay [1], the “inhibition against MAO-A (in words)” value was “potent inhibition”. In assay [3], this molecule displayed a BChE %age inhibition of 15.78% ^c. Moreover, the “inhibition against MAO-B (in words)” value in assay [4] is “strong inhibition”. Besides, the midpoint of inhibition in assay [6], the IC50, lay at 110 ± 1 nM.
